Test results from publication PMC3265452 (PLoS Neglected Tropical Diseases, 2012).
Structures can show the parent of a compound that is named as a salt. Where two headings read alike, the source gives them in different places.

Legend:
AaDOP1 [1] = molecular target: T1, AaDOP1 (Aedes aegypti, UniProt H6D5H1); assay: CRELuc reporter dose-response in HEK293 cells stably expressing AaDOP1; type: cell-based
AaDOP2 [2] = molecular target: T2, AaDOP2 (Aedes aegypti, UniProt H6D5H2); assay: cell-based
AaDOP2 [3] = molecular target: T2, AaDOP2; assay: AaDOP2 antagonist screen of the LOPAC1280 library (HEK-CRELuc-Aadop2 cells, luminescence); type: cell-based; conditions: for inhibition at 10 µM: read-out: % of the SCH23390 effect (percent inhibition of receptor response relative to the SCH23390 control)
[4] = molecular target: T3, human D1 dopamine receptor (hD1) (Homo sapiens, UniProt P21728); assay: cAMP accumulation secondary assay, hD1-expressing cells; type: cell-based
T3 construct: expressed in transfected cells
T3 sequence (P21728 whole entry): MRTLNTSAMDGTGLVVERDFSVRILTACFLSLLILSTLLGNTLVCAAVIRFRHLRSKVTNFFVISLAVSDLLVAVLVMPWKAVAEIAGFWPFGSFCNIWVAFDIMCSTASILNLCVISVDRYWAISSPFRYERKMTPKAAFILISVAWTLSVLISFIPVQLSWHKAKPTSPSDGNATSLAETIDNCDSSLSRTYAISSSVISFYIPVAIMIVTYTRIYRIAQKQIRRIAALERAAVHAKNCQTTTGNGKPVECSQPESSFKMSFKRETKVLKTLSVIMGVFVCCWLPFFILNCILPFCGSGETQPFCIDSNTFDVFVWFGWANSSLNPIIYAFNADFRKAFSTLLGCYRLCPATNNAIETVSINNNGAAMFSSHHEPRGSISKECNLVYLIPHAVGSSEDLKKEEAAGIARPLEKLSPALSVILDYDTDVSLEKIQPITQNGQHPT

[5] = test system: Ae. aegypti L4-stage larvae (Liverpool strain); assay: whole plant or invertebrate; type: in vivo, Aedes aegypti; conditions: for average mortality: single dose-point 400 µM, 24 hours post-treatment
Protocol: Single dose-point and dose response in vivo mosquito bioassays were used to assess the toxicity of selected AaDOP2 receptor antagonists identified in the chemical screen. Larvae of Ae. aegypti (Liverpool strain) were reared under standard laboratory conditions on a 12 hr day/night cycle at 75% RH and 28°C, and bioassays were conducted at room temperature (22–24°C). Larvae were transferred from standard rearing trays into six-well tissue culture plates (Corning, Inc. Corning, NY) using a small plastic pipette. Ten L4-stage larvae were included per well, each containing five ml of de-ionized water and the assigned drug concentration. Controls were conducted similarly but lacked a drug treatment. Bioassays employed a double-blind experimental design, and percent mortality was scored 24 hr following administration of drugs. Single dose-point assays were conducted using 400 µM drug and included three biological replicates each consisting of 50–100 larvae. Dose-response assays were conducted using five doses (400, 200, 100, 50, and 25 µM) of the compounds suspended in water, with water alone as a control. Five technical replicates, each including 10 larvae, were performed per dose, and the assay was repeated three times.

AaDOP2 [6] = molecular target: T2, AaDOP2; conditions: for Relative fold selectivity for AaDOP2 vs. hD1: from IC50 values at AaDOP2 and hD1
AaDOP2 [7] = molecular target: T2, AaDOP2; assay: cell-based; remark: listed apart in the source
AaDOP2 [8] = molecular target: T2, AaDOP2
AaDOP1 [9] = molecular target: T1, AaDOP1; conditions: single dose of dopamine 10 µM, n = 3
AaDOP2 [10] = molecular target: T2, AaDOP2; conditions: single dose of dopamine 10 µM, n = 3
[11] = HEK293 cells stably expressing CRELuc reporter and AaDOP1, read-out: EC50 values AaDOP1
[12] = 10 µM SCH23390 in the presence of 1 µM dopamine

T1 sequence (H6D5H1 entry or part of it): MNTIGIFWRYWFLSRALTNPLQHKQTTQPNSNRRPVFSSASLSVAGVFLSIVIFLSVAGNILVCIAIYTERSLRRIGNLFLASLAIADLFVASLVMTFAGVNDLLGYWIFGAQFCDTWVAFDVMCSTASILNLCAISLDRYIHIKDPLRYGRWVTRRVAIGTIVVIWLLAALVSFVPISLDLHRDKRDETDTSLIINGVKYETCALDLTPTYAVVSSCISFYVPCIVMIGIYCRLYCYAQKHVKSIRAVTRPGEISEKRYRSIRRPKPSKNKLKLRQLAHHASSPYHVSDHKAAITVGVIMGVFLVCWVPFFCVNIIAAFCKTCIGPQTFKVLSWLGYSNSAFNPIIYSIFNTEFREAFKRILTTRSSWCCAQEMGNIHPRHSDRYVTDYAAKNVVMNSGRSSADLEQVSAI
T2 sequence (H6D5H2 1-476): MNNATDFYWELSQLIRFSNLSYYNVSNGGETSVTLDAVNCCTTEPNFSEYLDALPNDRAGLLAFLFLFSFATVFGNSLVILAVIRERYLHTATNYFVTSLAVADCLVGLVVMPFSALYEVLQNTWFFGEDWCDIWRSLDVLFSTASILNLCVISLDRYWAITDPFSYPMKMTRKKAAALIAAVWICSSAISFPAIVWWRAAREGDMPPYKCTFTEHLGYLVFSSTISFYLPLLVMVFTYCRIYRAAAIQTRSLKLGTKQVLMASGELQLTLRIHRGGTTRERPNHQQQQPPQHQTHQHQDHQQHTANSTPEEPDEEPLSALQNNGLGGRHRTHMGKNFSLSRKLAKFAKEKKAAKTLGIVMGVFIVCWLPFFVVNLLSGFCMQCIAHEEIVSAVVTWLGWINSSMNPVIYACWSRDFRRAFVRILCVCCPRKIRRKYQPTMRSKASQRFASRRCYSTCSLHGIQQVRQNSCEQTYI

| Compound effect (percent receptor signaling in presence of test compound, relative lux units relative to the SCH23390 control) (AaDOP2 [3]) | inhibition at 10 µM (AaDOP2 [3]) [%] | IC50 (AaDOP2 [7]) [µM] | SMILES | EC50 (AaDOP2 [2]) [µM] | further results |
| --- | --- | --- | --- | --- | --- |
|  |  |  | Oc1cc2c(cc1O)[C@H]1c3ccccc3CN[C@@H]1CC2 (racemic) [Dihydrexidine, dihydrexidine] | 0.29 ± 0.054 | EC50 (AaDOP1 [1]; [11]): 0.0069 ± 0.0015 µM |
| 115 |  |  | NC[C@H](O)c1ccc(O)c(O)c1 [Compound 106, L(-)-Norepinephrine bitartrate] | ≥ 10 | EC50 (AaDOP1 [1]): 0.76 ± 0.18 µM |
|  |  |  | CN(C)CCC=C1c2ccccc2COc2ccccc21 [Compound 386, Doxepin hydrochloride] |  | average mortality [5]: 72% |
|  | 83 | 1.6 ± 0.073 | CN1CCc2cc(Cl)c(O)cc2[C@@H](c2ccccc2)C1 [Compound 446, R(+)-SCH-23390 hydrochloride] |  | inhibition of dopamine-mediated stimulation of AaDOP1 (AaDOP1 [1]; [12]): robustly inhibited; inhibition of dopamine-mediated stimulation of AaDOP2 (AaDOP2 [8]; [12]): robustly inhibited |
|  |  |  | CNC[C@H](O)c1ccc(O)c(O)c1 [Compound 491, (-)-Epinephrine bitartrate] | ≥ 10 |  |
|  | 88 | 0.02 ± 0.0054 | OCCN1CCN(CC/C=C2/c3ccccc3Sc3ccc(C(F)(F)F)cc32)CC1 [Compound 541, cis-(Z)-Flupenthixol dihydrochloride, reference compound] |  |  |
|  |  |  | NCCc1c[nH]cn1 [Compound 596, Histamine dihydrochloride] | ≥ 10 | EC50 (AaDOP1 [1]; HEK293 cells stably expressing CRELuc reporter and AaDOP1, ≥10 µM considered lacking intrinsic activity, read-out: EC50 values AaDOP1): ≥ 10 µM |
|  |  |  | NCCc1ccc(O)c(O)c1 [Compound 603, Dopamine hydrochloride] |  | EC50 (AaDOP1 [1]): 0.0031 ± 0.0011 µM; increase of intracellular cAMP (AaDOP1 [9]): 2.7±0.6 fold; increase of intracellular cAMP (AaDOP2 [10]): 48±14 fold |
| 5 | 95 | ≥ 10 | O=C(Nc1ccc([N+](=O)[O-])cc1Cl)c1cc(Cl)ccc1O [Compound 847, Niclosamide, reference compound] |  |  |
| 2 | 98 | ≥ 10 | Oc1cc(O)cc(/C=C/c2ccc(O)c(O)c2)c1 [Compound 916, Piceatannol, reference compound] |  |  |
| 11 | 89 | ≥ 10 | Oc1ccc(/C=C/c2cc(O)cc(O)c2)cc1 [Compound 1048, Resveratrol, reference compound] |  |  |
|  |  |  | NCCc1ccc(O)cc1 [Compound 1162, 4-Hydroxyphenethylamine hydrochloride] | ≥ 10 | EC50 (AaDOP1 [1]): ≥ 10 µM |
|  |  |  | CSc1ccc2c(c1)C(N1CCN(C)CC1)Cc1ccccc1S2.O=C(O)/C=C\C(=O)O (stereo not drawn) [Methiothepin, methiothepin maleate] |  | IC50 ([4]; read-out: IC50 value (at 100 nM dopamine for hD1), 100 nM dopamine, cAMP accumulation): 0.08 ± 0.011 µM; Relative fold selectivity for AaDOP2 vs. hD1 (AaDOP2 [6]): 5.7 fold; IC50 (AaDOP2 [6]; read-out: IC50 value (at 3 µM dopamine for AaDOP2), 3 µM dopamine, cAMP accumulation): 0.014 ± 0.0051 µM |
|  |  |  | Oc1cc2c(cc1O)C(c1ccccc1)CNCC2 (stereo not drawn) [SKF 38393] | ≥ 10 | EC50 (AaDOP1 [1]; [11]): 0.31 ± 0.046 µM |
|  |  |  | Oc1cc2c(c(Cl)c1O)CCNCC2c1ccccc1 (stereo not drawn) [SKF 81297] |  | EC50 (AaDOP1 [1]; [11]): 0.024 ± 0.007 µM; EC50 (AaDOP2 [8]; read-out: EC50 values AaDOP2, HEK293 cells stably expressing CRELuc reporter and AaDOP2, ≥10 µM considered lacking intrinsic activity): ≥ 10 µM |

| SMILES | Compound effect (percent receptor signaling in presence of test compound, relative lux units relative to the SCH23390 control) (AaDOP2 [3]) | inhibition at 10 µM (AaDOP2 [3]) [%] | IC50 (AaDOP2 [7]) [µM] | EC50 (AaDOP2 [2]) [µM] | further results |
| --- | --- | --- | --- | --- | --- |
| CN(C)CCC=C1c2ccccc2CCc2ccccc21 [Compound 92, Amitriptyline hydrochloride] | 10 | 90 | 0.014 ± 0.0034 |  | IC50 [4]: 0.47 ± 0.049 µM; LC50 ([5]; Aedes aegypti, 24 h): 78 µM; LC90 ([5]; dose-response 25-400 µM, 24 hr): 185 µM; average mortality [5]: 93%; Relative fold selectivity for AaDOP2 vs. hD1 (AaDOP2 [6]; listed as Amitriptyline): 36 fold; Relative fold selectivity for AaDOP2 vs. hD1 (AaDOP2 [6]; listed as amitriptyline): more than 30 fold |
| NCCc1c[nH]c2ccc(O)cc12 [Compound 613, Serotonin hydrochloride] | 110 |  |  | ≥ 10 | EC50 (AaDOP1 [1]): ≥ 10 µM |
